This is an account of results in PubChem BioAssay (NCI).

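Exposure lasted 48 hours, with cells grown in 96-well plates and compounds tested at five concentrations. At the GI50, growth is halved. TGI denotes the concentration required for complete inhibition of growth.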

Some test systems named below: KM12 colon; HCT-116 colon; EKVX NSCLC; UACC-62 melanoma; NCI-H23 lung; MALME-3M melanoma; OVCAR-3 ovarian; HL-60(TB) leukemia; SK-MEL-28 melanoma; A498 renal.
Assay in all cases: NCI tumour cell line growth inhibition, 48 h

For `CN(C)CC/C(=N\Nc1ccccc1)c1ccccc1`, the TGI in the experiment with KM12 colon was 18.3 µM; with HCT-116 colon, 34.4 µM; with EKVX NSCLC, 41.2 µM; in the experiment on UACC-62 melanoma it was more than 100 µM; in the experiment with NCI-H23 lung, more than 100 µM; in the experiment with MALME-3M melanoma, 25.6 µM. The molecule also returned a TGI in the experiment on OVCAR-3 ovarian of 27.7 µM.

Take `COc1cccc(-c2nc3sccn3c2-c2ccnc(NCCNS(=O)(=O)c3ccccc3)c2)c1`: the GI50 is 3.13 µM in the experiment on KM12 colon; 2.73 µM in the experiment with HCT-116 colon; 3.13 µM in the experiment on EKVX NSCLC; 1710 nM in the experiment with HL-60(TB) leukemia; 1.29 µM in the experiment with UACC-62 melanoma; 5.13 µM in the experiment on SK-MEL-28 melanoma. Further, the results for the GI50 in the experiment on NCI-H23 lung, with MALME-3M melanoma and with OVCAR-3 ovarian were 2640 nM, 2.79 µM and 3.15 µM, respectively. Also, the TGI in the experiment with KM12 colon is 25 µM; in the experiment with HCT-116 colon, more than 100 µM; with EKVX NSCLC, more than 100 µM; in the experiment on HL-60(TB) leukemia, 5.56 µM; in the experiment on UACC-62 melanoma it was 3.49 µM; with SK-MEL-28 melanoma, more than 100 µM. Also, the results for the TGI in the experiment on NCI-H23 lung, in the experiment with MALME-3M melanoma and with OVCAR-3 ovarian were 13.3 µM, more than 100 µM and more than 100 µM, respectively.

With `COC(=O)C(=O)C(C#N)c1ccc(CC#N)cc1` (configuration not stated), the TGI in the experiment with KM12 colon, with HCT-116 colon, with EKVX NSCLC, in the experiment with HL-60(TB) leukemia, in the experiment on UACC-62 melanoma and in the experiment on SK-MEL-28 melanoma was more than 100 µM each time. Further, the TGI in the experiment on NCI-H23 lung, in the experiment on MALME-3M melanoma and in the experiment with OVCAR-3 ovarian was more than 100 µM each time.

Consider `Cc1cc(C)nc(NS(=O)(=O)c2ccc(Nc3c4ccc(Cl)cc4nc4c(C(=O)Nc5ccc(S(=O)(=O)N=C(N)N)cc5)cccc34)cc2)n1`, for which the TGI with KM12 colon, in the experiment with HCT-116 colon, in the experiment with EKVX NSCLC, with UACC-62 melanoma, in the experiment on SK-MEL-28 melanoma and in the experiment on NCI-H23 lung was more than 100 µM each time. Besides, the TGI in the experiment on A498 renal, in the experiment on MALME-3M melanoma and in the experiment on OVCAR-3 ovarian was more than 100 µM in each case.

On to `Cc1cc(N2CCCC2)nc(NC2CCCC(Nc3ccnc4cc(Cl)ccc34)C2)n1` (configuration not stated), for which the GI50 in the experiment with KM12 colon is 1.5 µM; with HCT-116 colon, 0.442 µM; in the experiment on EKVX NSCLC it was 1.86 µM; with UACC-62 melanoma, 1.92 µM; with SK-MEL-28 melanoma, 1.77 µM; in the experiment with NCI-H23 lung it was 1590 nM. Besides, the GI50 with A498 renal was 1.91 µM; with OVCAR-3 ovarian, 1.67 µM. Further, the TGI in the experiment on KM12 colon is 3.89 µM; in the experiment with HCT-116 colon, 1.68 µM; in the experiment with EKVX NSCLC it was 5.02 µM; with UACC-62 melanoma it was 3.57 µM; in the experiment on SK-MEL-28 melanoma it was 3.43 µM; in the experiment with NCI-H23 lung, 4.14 µM. Besides, the TGI in the experiment on A498 renal worked out at 3.48 µM; with OVCAR-3 ovarian it was 4.21 µM.

As to `Cc1ccc(NC(=O)CCC/C(CC(=O)c2ccc(Br)cc2)=N/NC(=O)CC#N)cc1`, the TGI with KM12 colon, in the experiment on HCT-116 colon, in the experiment with EKVX NSCLC, in the experiment with HL-60(TB) leukemia, in the experiment with UACC-62 melanoma and in the experiment with SK-MEL-28 melanoma was more than 100 µM throughout. Besides, the TGI in the experiment with NCI-H23 lung, in the experiment with MALME-3M melanoma and in the experiment with OVCAR-3 ovarian was more than 100 µM throughout.

`O=C1c2cc([N+](=O)[O-])ccc2-c2cccc(F)c21`: the TGI in the experiment on KM12 colon was more than 100 µM; with HCT-116 colon, more than 100 µM; in the experiment with EKVX NSCLC, 51.5 µM; in the experiment on HL-60(TB) leukemia, more than 100 µM; with UACC-62 melanoma, more than 100 µM; with SK-MEL-28 melanoma, more than 100 µM. Further, the TGI in the experiment on NCI-H23 lung, with A498 renal and in the experiment with OVCAR-3 ovarian was more than 100 µM each time.

On to `CC[O-].CC[O-].O=C1C(c2ccccc2)=C([O-])c2ccccc21.O=C1C(c2ccccc2)=C([O-])c2ccccc21.[Ti+4]`, for which the GI50 with KM12 colon was 62.9 µM; with HCT-116 colon, more than 100 µM; in the experiment with EKVX NSCLC, 60.1 µM; with HL-60(TB) leukemia, more than 100000 nM; in the experiment on UACC-62 melanoma it was 72.6 µM; in the experiment with SK-MEL-28 melanoma it was more than 100 µM. In addition, the GI50 in the experiment on NCI-H23 lung is more than 100000 nM; in the experiment with MALME-3M melanoma, more than 100 µM; in the experiment with OVCAR-3 ovarian it was more than 100 µM. Moreover, the TGI with KM12 colon, in the experiment on HCT-116 colon, with EKVX NSCLC, with HL-60(TB) leukemia, with UACC-62 melanoma and with SK-MEL-28 melanoma was more than 100 µM in each case. Besides, the TGI in the experiment with NCI-H23 lung, in the experiment with MALME-3M melanoma and in the experiment on OVCAR-3 ovarian was more than 100 µM throughout.

As to `CCCC(C)C[C@@H](C)CC(C)/C=C(\C)c1oc(=O)c(C)c(O)c1C` (some centres not stated) (tested in a mixture with another compound), the TGI in the experiment with KM12 colon worked out at 41.4 µM; in the experiment on HCT-116 colon it was 32.3 µM; in the experiment on EKVX NSCLC, 31.9 µM; with HL-60(TB) leukemia, 29.8 µM; with SK-MEL-28 melanoma it was 28.2 µM; in the experiment with MALME-3M melanoma, 9.17 µM. The molecule further yielded a TGI in the experiment with OVCAR-3 ovarian of 18.9 µM.

For `CC(C)CNc1nc(-c2ccccc2)nc2ccccc12`, the GI50 in the experiment on KM12 colon was 12.7 µM; in the experiment with HCT-116 colon it was 13.8 µM; with UACC-62 melanoma it was 14.6 µM; in the experiment with SK-MEL-28 melanoma, 17.3 µM; in the experiment on NCI-H23 lung it was 17000 nM; in the experiment on A498 renal it was 15.1 µM. In addition, the GI50 in the experiment on MALME-3M melanoma is 13.4 µM; in the experiment on OVCAR-3 ovarian, 15.7 µM. Besides, the TGI in the experiment with KM12 colon is 26.4 µM; in the experiment with HCT-116 colon, 26.7 µM; in the experiment on UACC-62 melanoma it was 29.4 µM; in the experiment with SK-MEL-28 melanoma it was 32.7 µM; in the experiment on NCI-H23 lung, 34.5 µM; in the experiment with A498 renal it was 29.5 µM. Besides, the TGI stood at 26.4 µM in the experiment with MALME-3M melanoma and 31 µM with OVCAR-3 ovarian.

For `CCN(CC)CCNC(=O)c1nn(C)c(=S)[nH]c1=S`, the TGI in the experiment with KM12 colon, in the experiment with HCT-116 colon, in the experiment on EKVX NSCLC, in the experiment on HL-60(TB) leukemia, in the experiment with UACC-62 melanoma and in the experiment with SK-MEL-28 melanoma was more than 100 µM in each case. Besides, the TGI in the experiment with NCI-H23 lung, in the experiment with MALME-3M melanoma and in the experiment on OVCAR-3 ovarian was more than 100 µM in each case.

For the molecule `CC[Si](CC)(CC)OC[C@]1([C@@H]2COC(C)(C)O2)CC=CC(=O)O1`, the GI50 is 34.3 µM in the experiment on KM12 colon; 39.5 µM with HCT-116 colon; 31.5 µM in the experiment on EKVX NSCLC; 25.6 µM in the experiment with UACC-62 melanoma; 19.8 µM in the experiment with SK-MEL-28 melanoma; 23300 nM in the experiment on NCI-H23 lung. Besides, the GI50 with A498 renal was 20.9 µM; in the experiment on MALME-3M melanoma, 18.1 µM; in the experiment with OVCAR-3 ovarian it was 32.6 µM. For the same molecule, the TGI was more than 100 µM with KM12 colon; more than 100 µM in the experiment on HCT-116 colon; more than 100 µM with EKVX NSCLC; more than 100 µM with UACC-62 melanoma; 85.3 µM in the experiment on SK-MEL-28 melanoma; more than 100 µM with NCI-H23 lung. The TGI in the experiment on A498 renal was 75.7 µM; in the experiment on MALME-3M melanoma it was 44.4 µM; in the experiment on OVCAR-3 ovarian it was more than 100 µM.

Regarding `CC/C(=C(/CC)c1ccc(O)cc1)c1ccc([O-])cc1.CC/C(=C(/CC)c1ccc(O)cc1)c1ccc([O-])cc1.O=C([CH-]C(=O)c1ccccc1)c1ccccc1.O=C([CH-]C(=O)c1ccccc1)c1ccccc1.[Ti+4]`, the GI50 in the experiment with KM12 colon was 12.5 µM; with HCT-116 colon, 5.22 µM; in the experiment with EKVX NSCLC, 17.6 µM; in the experiment on UACC-62 melanoma it was 6.61 µM; with SK-MEL-28 melanoma, 15.8 µM; with MALME-3M melanoma, 7.53 µM. Moreover, in the experiment with OVCAR-3 ovarian, the GI50 was 27.7 µM. Besides, the TGI with KM12 colon is 35.1 µM; in the experiment with HCT-116 colon, 17.3 µM; with EKVX NSCLC, 46 µM; in the experiment on UACC-62 melanoma, 25.5 µM; in the experiment on SK-MEL-28 melanoma, more than 100 µM; with MALME-3M melanoma, 20.3 µM. Further, the TGI with OVCAR-3 ovarian is more than 100 µM.

`CC(=O)/C(=C\C1=CCCO1)C(=O)Nc1ccccc1C`: the TGI in the experiment with KM12 colon, with HCT-116 colon, in the experiment with EKVX NSCLC, in the experiment with HL-60(TB) leukemia, with UACC-62 melanoma and in the experiment on NCI-H23 lung was more than 100 µM each time. The TGI in the experiment with MALME-3M melanoma and with OVCAR-3 ovarian was more than 100 µM throughout.

Regarding `O=C1c2ccccc2C2(O)NC(=S)N(c3ccccc3)C12O` (configuration not stated), the TGI with KM12 colon, in the experiment with HCT-116 colon, in the experiment on EKVX NSCLC, in the experiment on HL-60(TB) leukemia, in the experiment with UACC-62 melanoma and in the experiment with SK-MEL-28 melanoma was more than 100 µM in each case. Moreover, the TGI with NCI-H23 lung, with MALME-3M melanoma and with OVCAR-3 ovarian was more than 100 µM each time.

Turning to `CCC[CH2][Sn]([CH2]CCC)([O]C(=O)C(N)CSC)[O]C(=O)C(N)CSC` (configuration not stated), the GI50 in the experiment with KM12 colon was 13.3 µM; in the experiment with HCT-116 colon, 11.6 µM; in the experiment with EKVX NSCLC it was 12.1 µM; in the experiment with UACC-62 melanoma, 10.4 µM; with SK-MEL-28 melanoma, 5.86 µM; in the experiment with NCI-H23 lung, 2750 nM. The values for the GI50 in the experiment on A498 renal, in the experiment on MALME-3M melanoma and with OVCAR-3 ovarian were 3.91 µM, 7.19 µM and 12.5 µM, respectively. Besides, the TGI in the experiment with KM12 colon was found to be 29.4 µM; with HCT-116 colon, 24.7 µM; in the experiment on EKVX NSCLC it was 27.1 µM; in the experiment with UACC-62 melanoma it was 23 µM; in the experiment on SK-MEL-28 melanoma it was 18.2 µM; in the experiment with NCI-H23 lung, 13.1 µM. The TGI with MALME-3M melanoma amounted to 48.7 µM; with OVCAR-3 ovarian, 25.4 µM.

For the molecule `COC(=O)C12CC(c3ccccc31)C1C(=O)OC(=O)C12` (configuration not stated), the TGI in the experiment on KM12 colon, with HCT-116 colon, in the experiment on EKVX NSCLC, in the experiment on HL-60(TB) leukemia, in the experiment with UACC-62 melanoma and in the experiment on SK-MEL-28 melanoma was more than 100 µM throughout. The TGI with NCI-H23 lung, in the experiment with MALME-3M melanoma and in the experiment with OVCAR-3 ovarian was more than 100 µM each time.
